Assay [1] has as its system Bacillus subtilis. Description: Anti-bacterial activity against Bacillus subtilis ATCC 33712 measured after 24 hrs by microtiter broth dilution method. The class given is functional. The following applies: ATCC 33712, 24 h.
Assay [2] relates to Staphylococcus aureus. Description: Anti-bacterial activity against methicillin-resistant Staphylococcus aureus ATCC 700699 measured after 24 hrs by microtiter broth dilution method. The class given is functional. The settings on record: Mu50, 24 h.
Assay [3] concerns Escherichia coli. Description: Anti-bacterial activity against Escherichia coli ATCC 11303 measured after 24 hrs by microtiter broth dilution method. The class given is functional. The following applies: ATCC 11303, 24 h.
In assay [4] the test system is Staphylococcus aureus. The experiment in a line: Anti-bacterial activity against Staphylococcus aureus ATCC 10832 measured after 24 hrs by microtiter broth dilution method. The following applies: ATCC 10832, 24 h. In kind it is functional.
Assay [5] has as its system Candida albicans. The experiment in a line: microbe, parasite or virus in culture. The class given is functional. The settings on record: ATCC 10231, 24 h.
Description: Anti-fungal activity against Candida albicans ATCC 10231 measured after 24 hrs by microtiter broth dilution method
Assay [6] deals with Bacillus subtilis. Description: Potency index, ratio of ceftazidime IC50 to compound IC50 for anti-bacterial activity against Bacillus subtilis ATCC 33712. In kind it is functional.
In assay [7] the test system is Bacillus subtilis. The experiment in a line: Potency index, ratio of Cefradine MIC to compound MIC for anti-bacterial activity against Bacillus subtilis ATCC 33712.
Assay [8] relates to Bacillus subtilis. Description: Potency index, ratio of Cefotaxime IC50 to compound IC50 for anti-bacterial activity against Bacillus subtilis ATCC 33712. In kind it is functional.
Assay [9] relates to Bacillus subtilis. The experiment in a line: Potency index, ratio of sodium penicillin IC50 to compound IC50 for anti-bacterial activity against Bacillus subtilis ATCC 33712. In kind it is functional.

Converted amounts (≈) assume the structure as drawn.

Take `CC(C)(C)c1ccc(O[C@@H](Cc2ccc3oc(CCc4cc5ccccc5o4)nc3c2)C(=O)O)cc1`: the MIC in [1] is 0.39 µg/mL (≈ 0.807 µM); in assay [2], 0.78 µg/mL (≈ 1.61 µM); in assay [3], 0.78 µg/mL (≈ 1.61 µM); in assay [4], 0.78 µg/mL (≈ 1.61 µM); in assay [5], over 200 µg/mL.
In the case of `Cc1oc(-c2ccccc2)nc1CCc1nc2cc(C[C@H](Oc3ccc(C(C)(C)C)cc3)C(=O)O)ccc2o1`, the MIC was 0.78 µg/mL (≈ 1.49 µM) in [1]; 0.78 µg/mL (≈ 1.49 µM) in [2]; 1.56 µg/mL (≈ 2.97 µM) in [3]; 1.56 µg/mL (≈ 2.97 µM) in [4]; over 200 µg/mL in assay [5].
Regarding `CC1(C)S[C@@H]2[C@H](NC(=O)Cc3ccccc3)C(=O)N2[C@H]1C(=O)[O-].[Na+]` [PENICILLIN G SODIUM], the MIC in assay [1] was determined as 0.195 µg/mL; in [2], 3.12 µg/mL; in assay [3], 0.78 µg/mL; in assay [4], 3.12 µg/mL.
For the compound `CC(C)(C)c1ccc(O[C@@H](Cc2ccc3oc(CC4CCOCC4)nc3c2)C(=O)O)cc1`, the MIC in assay [1] is 200 µg/mL (≈ 457 µM); in assay [3], over 200 µg/mL; in assay [5], over 200 µg/mL.
For `CC(C)(C)c1ccc(O[C@@H](Cc2ccc3oc(CCc4cn5cc(C(F)(F)F)ccc5n4)nc3c2)C(=O)O)cc1`, the MIC in [1] is 50 µg/mL (≈ 90.7 µM); in assay [2], 25 µg/mL (≈ 45.3 µM); in assay [3], over 200 µg/mL; in assay [4], 50 µg/mL (≈ 90.7 µM); in [5] it was over 200 µg/mL.
With `CC(C)Cc1nc2cc(C[C@H](Oc3ccc(C(C)(C)C)cc3)C(=O)O)ccc2o1`, the MIC was 1.56 µg/mL (≈ 3.94 µM) in [1], 3.12 µg/mL (≈ 7.89 µM) in assay [3] and over 200 µg/mL in [5].
As for `CC(C)(C)c1ccc(O[C@@H](Cc2ccc3oc(CCc4ccc(F)cc4)nc3c2)C(=O)O)cc1`, the MIC was 0.39 µg/mL (≈ 0.845 µM) in assay [1]; 1.56 µg/mL (≈ 3.38 µM) in assay [2]; 1.56 µg/mL (≈ 3.38 µM) in [3]; 1.56 µg/mL (≈ 3.38 µM) in assay [4]; over 200 µg/mL in assay [5].
Turning to `Cc1oc(-c2ccccc2)nc1CCCc1nc2cc(C[C@H](Oc3ccc(C(C)(C)C)cc3)C(=O)O)ccc2o1`, the MIC was 3.12 µg/mL (≈ 5.79 µM) in [1]; 1.56 µg/mL (≈ 2.9 µM) in assay [2]; 3.12 µg/mL (≈ 5.79 µM) in assay [3]; 1.56 µg/mL (≈ 2.9 µM) in assay [4]; over 200 µg/mL in [5].
For `Clc1ccc(COC(Cn2ccnc2)c2ccc(Cl)cc2Cl)c(Cl)c1.O=[N+]([O-])O` (stereo not drawn) [MICONAZOLE NITRATE], the MIC in assay [5] worked out at 1.56 µg/mL.
Turning to `CO/N=C(\C(=O)N[C@@H]1C(=O)N2C(C(=O)O)=C(COC(C)=O)CS[C@H]12)c1csc(N)n1` [CEFOTAXIME], the MIC in [1] is 0.78 µg/mL (≈ 1.71 µM); in [2], 3.12 µg/mL (≈ 6.85 µM); in [3] it was 200 µg/mL (≈ 439 µM); in assay [4] it was 3.12 µg/mL (≈ 6.85 µM).
Turning to `CC1=C(C(=O)O)N2C(=O)[C@@H](NC(=O)[C@H](N)C3=CCC=CC3)[C@H]2SC1` [CEPHRADINE], the MIC was 50 µg/mL (≈ 143 µM) in [1], 50 µg/mL (≈ 143 µM) in assay [2], 25 µg/mL (≈ 71.5 µM) in assay [3] and 25 µg/mL (≈ 71.5 µM) in [4].
With `CC(=O)N1CCN(c2ccc(OCC3COC(Cn4ccnc4)(c4ccc(Cl)cc4Cl)O3)cc2)CC1` (stereo not drawn) [KETOCONAZOLE], the MIC in [5] was under 0.39 µg/mL.
Take `CC(C)(O/N=C(\C(=O)N[C@@H]1C(=O)N2C(C(=O)[O-])=C(C[n+]3ccccc3)CS[C@H]12)c1csc(N)n1)C(=O)O` [CEFTAZIDIME]: the MIC in [1] came out at 6.25 µg/mL (≈ 11.4 µM); in [2], 12.5 µg/mL (≈ 22.9 µM); in assay [3] it was 200 µg/mL (≈ 366 µM); in assay [4], 0.78 µg/mL (≈ 1.43 µM).
Take `CC(C)(C)c1ccc(O[C@@H](Cc2ccc3oc(CCc4ccccc4)nc3c2)C(=O)O)cc1`: the MIC in assay [1] is 0.39 µg/mL (≈ 0.879 µM); in [2], 1.56 µg/mL (≈ 3.52 µM); in [3], 3.12 µg/mL (≈ 7.03 µM); in assay [4] it was 1.56 µg/mL (≈ 3.52 µM); in assay [5], over 200 µg/mL.
Take `CC(C)(C)c1ccc(O[C@@H](Cc2ccc3oc(CCc4ncco4)nc3c2)C(=O)O)cc1`: the MIC in assay [1] is 200 µg/mL (≈ 460 µM); in [2] it was 200 µg/mL (≈ 460 µM); in [3] it was over 200 µg/mL; in [4] it was over 200 µg/mL; in assay [5], over 200 µg/mL.
Turning to `CCCCCCCc1nc2cc(C[C@H](Oc3ccc(C(C)(C)C)cc3)C(=O)O)ccc2o1`, the MIC in assay [1] is 0.78 µg/mL (≈ 1.78 µM); in [2], 1.56 µg/mL (≈ 3.57 µM); in [3] it was 1.56 µg/mL (≈ 3.57 µM); in [4], 0.78 µg/mL (≈ 1.78 µM); in assay [5] it was over 200 µg/mL.
For the compound `CC(C)c1ccc(CCc2nc3cc(C[C@H](Oc4ccc(C(C)(C)C)cc4)C(=O)O)ccc3o2)cc1`, the entries for the “Ratio IC50” value in assay [6], in assay [8] and in assay [9] were 8 - 510, 8 - 510 and 2, respectively. The MIC in assay [1] was 0.098 µg/mL (≈ 0.202 µM); in assay [2], 0.195 µg/mL (≈ 0.402 µM); in [3], 0.78 µg/mL (≈ 1.61 µM); in assay [4] it was 0.39 µg/mL (≈ 0.803 µM); in [5], over 200 µg/mL. In [7], the “Ratio MIC” value is reported as 8 - 510.
As to `COc1cc(CCc2nc3cc(C[C@H](Oc4ccc(C(C)(C)C)cc4)C(=O)O)ccc3o2)cc(OC)c1OC`, the MIC in assay [1] is 100 µg/mL (≈ 187 µM); in [2], 100 µg/mL (≈ 187 µM); in [3], 200 µg/mL (≈ 375 µM); in assay [4] it was 100 µg/mL (≈ 187 µM); in [5] it was over 200 µg/mL.
